{"source": "patent US9610274B2", "about": "“Methods for treating bipolar disorder” (priority 2010, dated 2017)", "key": {"[1]": {"molecular_target": "T1, hSERT (human serotonin transporter) (Homo sapiens, UniProt P31645)", "T1 construct": "expressed in transfected cells; host or cells: HEK293 (ATCC), puromycin-selected clonal cells", "T1 sequence (P31645 whole entry)": "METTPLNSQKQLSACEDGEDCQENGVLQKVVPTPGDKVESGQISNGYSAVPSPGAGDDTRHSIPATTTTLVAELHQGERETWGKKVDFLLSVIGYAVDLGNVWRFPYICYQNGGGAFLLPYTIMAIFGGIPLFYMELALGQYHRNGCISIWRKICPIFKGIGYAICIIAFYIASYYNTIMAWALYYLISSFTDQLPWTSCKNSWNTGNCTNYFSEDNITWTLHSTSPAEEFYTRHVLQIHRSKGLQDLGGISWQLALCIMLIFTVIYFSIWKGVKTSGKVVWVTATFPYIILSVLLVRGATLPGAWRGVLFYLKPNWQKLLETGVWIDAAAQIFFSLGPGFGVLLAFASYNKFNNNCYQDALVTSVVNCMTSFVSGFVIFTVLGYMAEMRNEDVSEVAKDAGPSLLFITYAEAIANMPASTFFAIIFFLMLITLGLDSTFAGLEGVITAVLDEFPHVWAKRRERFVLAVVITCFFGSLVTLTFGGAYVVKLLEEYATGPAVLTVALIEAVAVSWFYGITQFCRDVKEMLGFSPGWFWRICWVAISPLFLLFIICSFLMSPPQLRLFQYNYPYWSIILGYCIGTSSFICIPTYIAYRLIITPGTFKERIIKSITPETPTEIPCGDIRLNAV", "assay": "Inhibition of [125I]RTI-55 binding to hSERT in HEK293 cell membranes", "conditions": "HEK-hSERT cells; mean ± SEM"}, "isolated mice": {"system": "isolated mice", "assay": "Isolation-induced fighting in mice", "type": "in vivo", "conditions": "Mus musculus", "protocol": "Male CD-1 mice (15-20 g) were utilized in this experiment. The test compound (15, 22 and 30 mg/kg) was dissolved in physiological saline (0.9%) and administered orally (PO) in a volume of 1 mL/100 g body weight.\nMice were isolated for up to 8 weeks in individual solid walled wire cages (24×20×17 cm). The animals were not disturbed except to replenish food. Aggression was tested by placing an intruder mouse into the home cage of the resident animal. Aggression was characterized by an attack on the “intruder” during a three minute period. […] Only those resident mice displaying fighting behavior were selected. […] ED50 values were calculated from the percent inhibition of fighting in computer program based on probit analysis."}, "[2]": {"molecular_target": "T2, hDAT (human dopamine transporter) (Homo sapiens, UniProt Q01959)", "T2 construct": "expressed in transfected cells; host or cells: HEK293 (ATCC), puromycin-selected clonal cells", "T2 sequence (Q01959 whole entry)": "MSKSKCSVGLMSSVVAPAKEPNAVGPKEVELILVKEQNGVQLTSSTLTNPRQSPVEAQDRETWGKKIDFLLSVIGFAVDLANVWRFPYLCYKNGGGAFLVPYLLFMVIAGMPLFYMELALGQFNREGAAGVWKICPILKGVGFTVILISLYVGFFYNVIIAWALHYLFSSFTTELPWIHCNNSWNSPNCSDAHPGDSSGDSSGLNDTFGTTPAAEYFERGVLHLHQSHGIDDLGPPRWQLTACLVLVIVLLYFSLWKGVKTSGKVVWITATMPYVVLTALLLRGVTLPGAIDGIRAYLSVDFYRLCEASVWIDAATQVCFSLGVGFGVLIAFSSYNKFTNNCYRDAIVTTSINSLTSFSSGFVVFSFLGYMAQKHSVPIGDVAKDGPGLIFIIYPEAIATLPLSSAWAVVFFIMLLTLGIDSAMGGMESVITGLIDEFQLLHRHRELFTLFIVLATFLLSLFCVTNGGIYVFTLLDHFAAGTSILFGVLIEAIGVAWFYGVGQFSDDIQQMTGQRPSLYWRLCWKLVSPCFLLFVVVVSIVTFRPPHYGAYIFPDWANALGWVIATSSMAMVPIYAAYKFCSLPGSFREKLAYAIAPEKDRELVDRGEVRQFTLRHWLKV", "assay": "Inhibition of [125I]RTI-55 binding to hDAT in HEK293 cell membranes", "conditions": "HEK-hDAT cells; mean ± SEM"}, "rats": {"system": "rats", "assay": "Forced swimming test in rats", "type": "in vivo", "conditions": "4 hours post-treatment", "protocol": "Male CD-1 mice (16-24 g) and male Wistar rats (90-125 g) were utilized in these experiments. The test compound (10, 15 and 30 mg/kg) was dissolved in physiological saline (0.9%) and administered orally in a volume of 1 mL/100 g body weight.\nMice and rats were placed in glass cylinders of 1000 ml beakers (height 14 cm, diameter 11.5 cm) and 4000 ml beakers (height 24.5 cm, diameter 18.0 cm), respectively, containing water (25 degrees Celsius) up to a height of 9.0 cm for mice and 19.0 cm for rats. […] Immobility was defined as lack of movement, such as floating in the water with little or no movement of hind legs. Duration of immobility was timed with a stopwatch and recorded. In some experiments, mice or rats were allowed to swim for 6 or 10 minutes, respectively, one day prior to the forced swimming experiment.\nIn the single dose test, mice or rats were given test compound or 0.9% NaCl and placed in glass cylinders 1 hour or 4 hours post-treatment, respectively. In the multiple dose experiments, mice were dosed twice a day for 3 days and given an additional dose on Day 4. In addition, the mice were placed in the glass cylinders containing water at 25 degrees Celsius and allowed to swim for six minutes on Day 3. Statistical evaluation was performed using a computer program (The Pharmacological Calculation System of Tallarida and Murray (#425475-04-7-1992)) based on probit analysis. Statistical significance was determined using Student's t-test at a P value of <0.05."}, "mice": {"system": "mice", "assay": "Forced swimming test in mice", "type": "in vivo", "conditions": "for ED50: Mus musculus"}, "[3]": {"system": "homozygous mutant dopamine transporter knockout (KO) mice", "assay": "Spontaneous activity in the open field, dopamine transporter KO mice", "type": "in vivo", "protocol": "Male and female wild-type and homozygous mutant dopamine transporter KO mice (n˜10 mice/genotype/agent; produced by in vivo homologous recombination and bred at Duke University Medical Center, Durham, N.C.) were tested for spontaneous activity in the open field following a single injection of the vehicle or compound. […] All drugs were given in a volume of 5 mL/kg. Animals were returned to the open field for an additional 90 min. Spontaneous activity was evaluated in an automated Omnitech Digiscan apparatus (Accuscan Instruments, Columbus, Ohio). Activity was summated at 5 min intervals over the 2 h period of testing. Horizontal activity or locomotion was measured in terms of the total distance covered in cm, vertical activity or rearing was expressed in terms of the total numbers of vertical beam breaks, and stereotypy was quantified in terms of repetitive breaks of a given beam or beams with intervals of less than 1 sec. For the analyses, 10 WT and 10 KO mice were run in each of the treatment groups with approximately equal numbers of males and females assigned to each group. Data were analyzed by the Statistical Package for Social Sciences programs (version 11.0 for Windows; SPSS Science, Chicago, Ill.). The results for each dependent variable were analyzed by repeated analyses of variance (RMANOVA) for within subjects effects (group differences over time) and between-subjects effects (tests of main effects and interactions). Bonferroni corrected pair-wise comparisons were used as the post-hoc tests. A p <0.05 was considered significant."}, "[4]": {"molecular_target": "T3, hNET (human norepinephrine transporter) (Homo sapiens, UniProt P23975)", "T3 construct": "expressed in transfected cells; host or cells: HEK293 (ATCC), geneticin-selected clonal cells", "T3 sequence (P23975 whole entry)": "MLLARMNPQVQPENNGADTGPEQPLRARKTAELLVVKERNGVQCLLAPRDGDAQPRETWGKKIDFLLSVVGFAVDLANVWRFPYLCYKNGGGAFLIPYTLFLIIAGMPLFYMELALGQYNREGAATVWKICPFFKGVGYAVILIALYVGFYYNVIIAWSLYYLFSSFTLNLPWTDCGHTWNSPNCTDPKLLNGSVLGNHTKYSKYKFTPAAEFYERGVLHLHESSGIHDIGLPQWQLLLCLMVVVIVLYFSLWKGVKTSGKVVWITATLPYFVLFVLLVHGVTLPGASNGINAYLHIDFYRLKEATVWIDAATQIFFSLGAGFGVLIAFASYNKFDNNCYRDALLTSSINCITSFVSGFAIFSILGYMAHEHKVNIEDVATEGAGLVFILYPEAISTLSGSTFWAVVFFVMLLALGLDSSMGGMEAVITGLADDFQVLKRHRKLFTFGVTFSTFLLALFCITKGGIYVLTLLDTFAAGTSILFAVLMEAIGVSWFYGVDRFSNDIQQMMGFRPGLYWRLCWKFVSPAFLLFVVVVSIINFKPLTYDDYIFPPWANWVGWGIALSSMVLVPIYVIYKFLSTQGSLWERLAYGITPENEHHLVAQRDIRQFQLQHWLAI", "type": "binding", "conditions": "HEK-hNET cells; mean ± SEM"}}, "note": "“Also recorded” adds a separate entry of the source. Like-named read-outs stand apart in the source and are kept apart here."}
{"smiles": "NC(=O)OC[C@H](N)Cc1ccccc1", "note": "[test compound, O-carbamoyl-(D)-phenylalaninol]", "values": [{"measurement": "Hill coefficient", "setting": "[1]", "value": "−2.28 ± 0.05"}, {"measurement": "inhibition at 15 mg/kg", "setting": "isolated mice; 1 h, 15 mg/kg PO, 60 min after dosing", "value": 28, "unit": "%"}, {"measurement": "inhibition at 22 mg/kg", "setting": "isolated mice; 1 h, 22 mg/kg PO, 60 min after dosing", "value": 44, "unit": "%"}, {"measurement": "inhibition at 30 mg/kg", "setting": "isolated mice; 1 h, 30 mg/kg PO, 60 min after dosing", "value": 56, "unit": "%"}, {"measurement": "ED50", "setting": "isolated mice; PO, inhibition of isolation-induced fighting, probit analysis, read-out: ED50 (mg/kg, PO) (confidence limits)", "value": 25.9, "unit": "mg/kg"}, {"measurement": "Hill coefficient", "setting": "[2]", "value": "−0.77 ± 0.12"}, {"measurement": "mean duration of immobility", "setting": "rats; 10 mg/kg, control 74 sec, not statistically significant", "value": 62, "unit": "s"}, {"measurement": "mean duration of immobility", "setting": "rats; 15 mg/kg, control 65 sec, not statistically significant", "value": 39, "unit": "s"}, {"measurement": "mean duration of immobility", "setting": "rats; 30 mg/kg, control 38 sec, significant", "value": 9, "unit": "s"}, {"measurement": "ED50", "setting": "rats; Rattus norvegicus, single dose PO, read-out: ED50 (reduction of mean immobility time)", "value": 18.5, "unit": "mg/kg"}, {"measurement": "ED50", "setting": "mice; multiple dosing PO (twice a day for 3 days plus a dose on Day 4), read-out: ED50 (reduction of mean immobility time)", "value": 5.5, "unit": "mg/kg"}, {"measurement": "ED50", "setting": "mice; read-out: ED50 (50% reduction in mean immobility time), single dose PO, 1 hour post-treatment", "value": 16.6, "unit": "mg/kg"}, {"measurement": "mean duration of immobility", "setting": "mice; multiple dosing 3 mg/kg PO, control 85 sec", "value": 63, "unit": "s"}, {"measurement": "mean duration of immobility", "setting": "mice; multiple dosing 5 mg/kg PO, control 136 sec, significant", "value": 73, "unit": "s"}, {"measurement": "mean duration of immobility", "setting": "mice; multiple dosing 8 mg/kg PO, control 114 sec, significant", "value": 39, "unit": "s"}, {"measurement": "mean duration of immobility", "setting": "mice; single dose 10 mg/kg PO, control 131 sec", "value": 101, "unit": "s"}, {"measurement": "mean duration of immobility", "setting": "mice; single dose 15 mg/kg PO, control 154 sec, significant", "value": 80, "unit": "s"}, {"measurement": "mean duration of immobility", "setting": "mice; single dose 30 mg/kg PO, control 132 sec, significant", "value": 30, "unit": "s"}, {"measurement": "spontaneous activity (locomotor, rearing and stereotypical activities)", "setting": "[3]; single SC injection, test compound 10, 30, 100 mg/kg, amphetamine 2 mg/kg, 90 min post-injection, relative to vehicle", "value": "selectively reduced activity of the KO mice in a dose-dependent manner; also recorded: reduced activities in a dose-dependent fashion"}, {"measurement": "spontaneous activity compared with amphetamine", "setting": "[3]; test compound 100 mg/kg SC versus amphetamine 2 mg/kg SC", "value": "suppressed activities more efficiently than amphetamine"}, {"measurement": "Hill coefficient", "setting": "[4]", "value": "−1.45 ± 0.34"}]}
